# From article PMC7409137, “Characterisation of Ovarian Cancer Cell Line NIH-OVCAR3 and Implications of Genomic, Transcriptomic, Proteomic and Functional DNA Damage Response Biomarkers for Therapeutic Targeting” (Cancers, 2020)
# Read-outs that look alike come from different tables or passages of the source.
# Legend:
# NIH-OVCAR3 cells [1] = assay: cells
# Protocol: (§1) NIH-OVCAR3 cells were exposed to (A) VE-821 for 48 h, (B) carboplatin for 24 h or (C) rucaparib for 24 h. Media was replaced with drug free media for 21 days to allow colony formation. Data are the mean and standard deviation of at least three independent experiments. (D) Sensitivity of an additional 12 ovarian cancer cell lines to the three drugs was calculated in the same way and LC50 values were calculated. […] Data are pooled from 3 independent experiments per cell line.
# (§2) Cells were plated into 6-well tissue culture dishes at low densities and allowed to adhere for 24 h before being treated for 24 h with carboplatin (0–50 µM) or rucaparib (0–30 µM), or 48 h with VE-821 (0–30 µM). DMSO concentration was kept constant at 0.5%, including no-drug control, for drugs dissolved in DMSO. Following treatment, the medium was removed and replaced with fresh drug-free medium to allow colony formation. The cells were fixed in methanol: acetic acid (3:1 v/v) and stained with 0.4% crystal violet. Colonies were counted and the % survival for each treatment was calculated from the relative plating efficiency of treated versus untreated controls.
# [2] = tested on: 12 ovarian cancer cell lines; assay: Colony formation assay, panel of 12 other ovarian cancer cell lines (mean)
# Protocol: as §1, with “(D) Sensitivity of an additional 12 ovarian cancer cell lines to the three drugs was calculated in the same way and LC50 values were calculated.” left out
# as §2
# [3] = tested on: HRR competent (HRC) cell lines; assay: Colony formation assay, HRR competent cell lines
# Protocol: as §1, §2
# [4] = tested on: BRCA1 mutant HRR defective (HRD) cell lines (COV362 and UWB1.289); assay: Colony formation assay, HRR defective cell lines
# Protocol: as §1, §2
# [5] = tested on: M059J and M059J-Fus1 cells; set-up: method as in PMID 22576130; details: cited from earlier work
# p53 = format: cell-based, human
# NIH-OVCAR3 cells [6] = assay: Immunofluorescence based γH2AX-RAD51 foci assay; format: cell-based, human; details: 10 µM rucaparib, 48 h vs 0.5% DMSO
# Protocol: Figure 4 Assessment of HRR and NHEJ in the NIH-OVCAR3 cells. (A) Cells were exposed to 0.5% DMSO (control) or 10 µM rucaparib for 48 h before being fixed and stained as per the protocol outlined in the methods. After imaging, the number of γH2AX and RAD51 foci per nucleus was calculated using ImageJ software, data points represent number of foci in an individual nucleus. The fold change in number of foci per nuclei between control and 10 µM rucaparib was then calculated. (B) Cells were co-transfected with pDRGFP and pCBASceI plasmids and analysed for the presence of GFP-positive cells 48 h post-transfection. % HRR activity was calculated by normalizing to the untransfected control. […] (C) Cells were co-transfected with pimEJ5GFP and pCBASceI plasmids and analysed for the presence of GFP-positive cells 48 h post-transfection. % NHEJ activity was calculated by normalizing to the untransfected control. […] [* p < 0.05; ** p < 0.005; **** p < 0.0001 (unpaired t-test)].
# HRR was assessed by immunofluorescence. Cells were treated for 48 h with 10 μM rucaparib with 0.5% DMSO concentration for the untreated and treated cells. […] The number of γH2AX and RAD51 foci in each cell was quantified using ImageJ software and data was plotted using GraphPad Prism (GraphPad, San Diego, CA, USA).
# p53 mutant CLL cells = tested on: p53 mutant CLL cells; set-up: method as in PMID 26312880; details: cited from earlier work
# [7] = tested on: panel of cell lines, including the HCT116 p53 isogenic pair; set-up: method as in PMID 28062704; details: panel of cell lines incl. HCT116 p53 isogenic pair; cited from earlier work
# ATR [8] = target: T1, ATR (Homo sapiens, UniProt Q13535); assay: ATR inhibition by western blot of pCHK1Ser345 after 4NQO, NIH-OVCAR3; format: cell-based
# T1 construct: NIH-OVCAR3 cells and 9 other ovarian cancer cell lines were exposed to 4NQO ± VE-821 as indicated for 1 hr before western blotting; endogenous in cells
# Protocol: (§3) (A) NIH-OVCAR3 cells and 9 other ovarian cancer cell lines were exposed to 4NQO ± VE-821 as indicated for 1 hr before western blotting. Chemiluminescence was quantified using Syngene software and expression of pCHK1Ser345 was normalised to vinculin expression. Western blot image is from a single representative experiment with pooled data from 3 independent experiments per cell line used to calculate the mean VE-821 IC50 and percentage inhibition at 1 µM VE-821. (B) Bar chart represents log-transformed read counts obtained from RNA-Seq data for each gene normalized to ACTB mRNA expression for NIH-OVCAR3 cells (black bars) and the mean mRNA expression of each gene across 12 cell lines (white bars) where each black dot represents one cell line. (C) Bar chart represents protein expression normalised to Ponceau-s staining calculated using ImageJ software in NIH-OVCAR3 cells (black bars) and the mean protein expression of each gene across 12 cell lines (white bars) where each black dot represents one cell line. Data are from a single experimental repeat. [PRKDC: DNA-PKcs, XRCC5: Ku80, XRCC6: Ku70]. […] Western blot of baseline protein expression in panel of ovarian cancer cell lines can be found at Figure S5.
# ATR [9] = target: T1, ATR; assay: ATR inhibition by western blot of pCHK1Ser345 after 4NQO, 9 other ovarian cancer cell lines; format: cell-based; details: mean of 9 ovarian cell lines
# Protocol: as §3
# [10] = tested on: HCT116 p53 isogenic cell line pair; set-up: method as in PMID 30127241; details: cited from earlier work
# [11] = ratio of LC50, colony formation
# [12] = Homo sapiens, 24 h, read-out: Rucaparib LC50 ± SD
# [13] = Homo sapiens, 48 h, read-out: VE-821 LC50 ± SD
# T1 sequence (Q13535 whole entry): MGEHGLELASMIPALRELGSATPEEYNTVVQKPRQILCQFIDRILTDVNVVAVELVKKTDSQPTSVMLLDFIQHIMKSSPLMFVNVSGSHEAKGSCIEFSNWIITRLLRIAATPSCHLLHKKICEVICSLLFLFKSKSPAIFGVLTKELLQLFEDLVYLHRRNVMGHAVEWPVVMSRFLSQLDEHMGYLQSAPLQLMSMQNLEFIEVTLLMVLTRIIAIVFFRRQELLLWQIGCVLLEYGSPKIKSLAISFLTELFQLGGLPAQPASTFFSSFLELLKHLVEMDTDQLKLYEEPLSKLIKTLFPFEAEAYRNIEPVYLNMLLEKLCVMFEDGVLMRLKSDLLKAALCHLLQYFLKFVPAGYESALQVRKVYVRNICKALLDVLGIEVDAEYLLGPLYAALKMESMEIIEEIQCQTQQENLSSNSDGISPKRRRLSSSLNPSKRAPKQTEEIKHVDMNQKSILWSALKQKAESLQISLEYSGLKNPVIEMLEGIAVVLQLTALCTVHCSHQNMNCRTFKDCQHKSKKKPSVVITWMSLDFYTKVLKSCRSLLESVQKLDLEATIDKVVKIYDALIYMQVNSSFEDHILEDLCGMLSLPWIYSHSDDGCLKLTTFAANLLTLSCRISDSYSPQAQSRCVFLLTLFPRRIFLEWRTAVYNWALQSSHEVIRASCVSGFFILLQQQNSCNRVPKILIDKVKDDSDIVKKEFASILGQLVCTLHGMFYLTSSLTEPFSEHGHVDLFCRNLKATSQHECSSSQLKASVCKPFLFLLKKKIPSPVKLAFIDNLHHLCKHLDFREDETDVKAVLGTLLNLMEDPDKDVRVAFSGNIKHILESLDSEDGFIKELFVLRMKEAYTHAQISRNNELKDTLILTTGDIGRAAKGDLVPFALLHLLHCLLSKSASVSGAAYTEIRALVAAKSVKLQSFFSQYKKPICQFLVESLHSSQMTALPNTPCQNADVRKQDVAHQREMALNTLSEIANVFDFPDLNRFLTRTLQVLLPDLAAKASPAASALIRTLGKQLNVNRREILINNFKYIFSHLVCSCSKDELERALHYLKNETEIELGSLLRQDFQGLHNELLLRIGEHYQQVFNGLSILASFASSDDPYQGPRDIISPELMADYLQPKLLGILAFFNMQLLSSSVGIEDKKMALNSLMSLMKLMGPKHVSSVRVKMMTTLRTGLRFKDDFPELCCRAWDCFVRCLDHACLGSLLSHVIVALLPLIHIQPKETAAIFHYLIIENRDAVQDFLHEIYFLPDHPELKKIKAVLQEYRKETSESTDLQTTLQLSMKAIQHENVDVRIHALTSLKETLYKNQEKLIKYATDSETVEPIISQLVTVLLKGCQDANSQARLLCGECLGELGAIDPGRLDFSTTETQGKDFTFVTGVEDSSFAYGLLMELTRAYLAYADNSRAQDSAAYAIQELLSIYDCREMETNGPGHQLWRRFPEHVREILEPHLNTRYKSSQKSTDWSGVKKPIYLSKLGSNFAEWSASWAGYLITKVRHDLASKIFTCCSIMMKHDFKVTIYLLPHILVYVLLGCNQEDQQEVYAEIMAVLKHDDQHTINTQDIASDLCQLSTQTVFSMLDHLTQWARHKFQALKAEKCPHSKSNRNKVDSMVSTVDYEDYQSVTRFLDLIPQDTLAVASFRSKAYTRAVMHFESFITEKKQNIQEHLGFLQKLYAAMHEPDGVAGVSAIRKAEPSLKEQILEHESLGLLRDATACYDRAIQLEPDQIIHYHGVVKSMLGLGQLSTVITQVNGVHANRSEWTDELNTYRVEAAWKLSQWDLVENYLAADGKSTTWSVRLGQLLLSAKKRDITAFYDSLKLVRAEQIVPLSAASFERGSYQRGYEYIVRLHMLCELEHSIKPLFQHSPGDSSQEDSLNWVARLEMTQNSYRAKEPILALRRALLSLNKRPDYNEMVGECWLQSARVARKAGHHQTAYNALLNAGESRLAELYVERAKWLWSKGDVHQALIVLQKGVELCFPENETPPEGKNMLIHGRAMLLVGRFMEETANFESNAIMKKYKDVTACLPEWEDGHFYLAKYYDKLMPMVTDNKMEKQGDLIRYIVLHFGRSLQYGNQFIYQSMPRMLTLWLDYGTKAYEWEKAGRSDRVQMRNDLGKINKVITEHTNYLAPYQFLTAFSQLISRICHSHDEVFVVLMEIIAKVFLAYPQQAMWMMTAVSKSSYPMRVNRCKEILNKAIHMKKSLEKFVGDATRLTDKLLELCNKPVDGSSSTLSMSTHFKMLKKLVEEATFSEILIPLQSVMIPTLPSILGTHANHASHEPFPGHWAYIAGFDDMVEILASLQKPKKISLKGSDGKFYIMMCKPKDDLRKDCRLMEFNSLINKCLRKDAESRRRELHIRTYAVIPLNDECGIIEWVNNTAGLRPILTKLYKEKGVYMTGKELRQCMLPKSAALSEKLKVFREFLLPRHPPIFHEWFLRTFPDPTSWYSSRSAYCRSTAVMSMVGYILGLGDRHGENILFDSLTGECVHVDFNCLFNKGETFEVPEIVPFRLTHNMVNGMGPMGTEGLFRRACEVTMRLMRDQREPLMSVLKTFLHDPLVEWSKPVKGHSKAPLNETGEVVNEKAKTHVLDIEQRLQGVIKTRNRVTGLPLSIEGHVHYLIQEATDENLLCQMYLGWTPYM
# T1 sequence (Q8WXE1 whole entry partner): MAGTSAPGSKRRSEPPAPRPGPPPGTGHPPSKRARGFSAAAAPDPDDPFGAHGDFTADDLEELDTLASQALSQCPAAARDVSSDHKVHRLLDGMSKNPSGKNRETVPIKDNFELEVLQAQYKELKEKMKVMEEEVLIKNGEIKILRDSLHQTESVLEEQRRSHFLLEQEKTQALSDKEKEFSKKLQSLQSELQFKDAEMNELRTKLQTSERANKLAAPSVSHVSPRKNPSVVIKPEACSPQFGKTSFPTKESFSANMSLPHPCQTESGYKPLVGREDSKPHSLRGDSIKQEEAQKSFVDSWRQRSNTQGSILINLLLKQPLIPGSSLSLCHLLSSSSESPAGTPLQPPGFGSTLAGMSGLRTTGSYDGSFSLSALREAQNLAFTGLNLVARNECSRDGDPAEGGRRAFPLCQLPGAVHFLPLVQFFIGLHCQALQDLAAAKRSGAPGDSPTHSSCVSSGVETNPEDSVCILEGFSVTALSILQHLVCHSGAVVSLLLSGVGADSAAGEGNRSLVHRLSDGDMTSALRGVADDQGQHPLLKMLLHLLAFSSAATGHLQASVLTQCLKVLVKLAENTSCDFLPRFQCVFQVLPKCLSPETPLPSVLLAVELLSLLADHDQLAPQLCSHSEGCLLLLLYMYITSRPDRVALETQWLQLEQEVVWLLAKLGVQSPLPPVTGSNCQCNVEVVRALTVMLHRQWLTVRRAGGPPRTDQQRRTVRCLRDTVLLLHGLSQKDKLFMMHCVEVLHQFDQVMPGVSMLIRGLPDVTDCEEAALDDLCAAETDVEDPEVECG
smiles,measurement,setting,value
"Nc1ccn([C@@H]2O[C@H](CO)[C@@H](O)C2(F)F)c(=O)n1 [Gemcitabine, gemcitabine]",CC50,"NIH-OVCAR3 cells [1]; Homo sapiens, OVCAR-3, read-out: Gemcitabine LC50 ± SD",41.5 ± 1.2 nM
same,Gemcitabine LC50 ± SD,[2],28.7 nM
N.N.O=C([O-])C1(C(=O)[O-])CCC1.[Pt+2] [Carboplatin],"Fold more sensitive, NIH-OVCAR3 compared to the 12 ovarian cancer cell lines",NIH-OVCAR3 cells [1]; [11],5 fold
same,CC50,"NIH-OVCAR3 cells [1]; read-out: Carboplatin LC50 ± SD, NIH-OVCAR3, 24 h exposure, then drug free media 21 days, colony formation",1290 ± 340 nM
same,CC50,"[2]; read-out: Carboplatin LC50 ± SD, mean of 12 ovarian cell lines, 24 h exposure, colony formation",6120 ± 6180 nM
same,CC50,"[3]; read-out: Carboplatin LC50 ± SD, HRC cell lines, 24 h exposure, colony formation",7020 ± 7090 nM
same,CC50,"[4]; read-out: Carboplatin LC50 ± SD, HRD cell lines, 24 h exposure, colony formation",1520 ± 940 nM
"CC[C@@]1(O)C(=O)OCc2c1cc1n(c2=O)Cc2cc3c(CN(C)C)c(O)ccc3nc2-1 [Topotecan, topotecan]",CC50,"NIH-OVCAR3 cells [1]; Homo sapiens, OVCAR-3, read-out: Topotecan LC50 ± SD",7.2 ± 0.36 nM
same,CC50,"[2]; Homo sapiens, 24 h, read-out: Topotecan LC50 ± SD",15.6 ± 9.32 nM
"COc1cccc2c1C(=O)c1c(O)c3c(c(O)c1C2=O)C[C@@](O)(C(=O)CO)C[C@@H]3O[C@H]1C[C@H](N)[C@H](O)[C@H](C)O1 [Doxorubicin, doxorubicin]","Fold higher percentage cell survival, NIH-OVCAR3 vs mean of the 12 ovarian cancer cell lines",NIH-OVCAR3 cells [1]; 100 nM doxorubicin,1.4 fold
same,CC50,"NIH-OVCAR3 cells [1]; Homo sapiens, OVCAR-3, read-out: Doxorubicin LC50 ± SD",55 ± 1.97 nM
same,percentage cell survival at 100 nM,"NIH-OVCAR3 cells [1]; NIH-OVCAR3, 100 nM doxorubicin",~ 17%
same,CC50,"[2]; Homo sapiens, 24 h, read-out: Doxorubicin LC50 ± SD",44.5 ± 15.5 nM
same,mean percentage cell survival at 100 nM,"[2]; mean of the 12 ovarian cancer cell lines, 100 nM doxorubicin",~ 12%
same,percentage cell survival at 100 nM,"[5]; M059J-Fus1 cells, 100 nM doxorubicin",~ 30%
same,"Fold more sensitive, NHEJ-deficient M059J vs NHEJ-proficient M059J-Fus1 cells",[5],20 fold
COc1ccc(C2=N[C@@H](c3ccc(Cl)cc3)[C@@H](c3ccc(Cl)cc3)N2C(=O)N2CCNC(=O)C2)c(OC(C)C)c1 [Nutlin-3],Induction of MDM2 and p21 (indicators of p53 activation),p53,no induction of either MDM2 or p21
"CC(=O)O[C@H]1C(=O)[C@@]2(C)[C@H]([C@H](OC(=O)c3ccccc3)[C@]3(O)C[C@H](OC(=O)[C@H](O)[C@@H](NC(=O)c4ccccc4)c4ccccc4)C(C)=C1C3(C)C)[C@]1(OC(C)=O)CO[C@@H]1C[C@@H]2O [Paclitaxel, paclitaxel]",CC50,"NIH-OVCAR3 cells [1]; Homo sapiens, OVCAR-3, read-out: Paclitaxel LC50 ± SD",2.71 ± 0.08 nM
same,CC50,"[2]; Homo sapiens, 24 h, read-out: Paclitaxel LC50 ± SD",3.37 ± 2.41 nM
"CNCc1ccc(-c2[nH]c3cc(F)cc4c3c2CCNC4=O)cc1 [Rucaparib, rucaparib]",CC50,"NIH-OVCAR3 cells [1]; Homo sapiens, OVCAR-3, read-out: Rucaparib LC50 ± SD",410 ± 60 nM
same,"Fold more sensitive, NIH-OVCAR3 compared to HRR competent (HRC) cell lines",NIH-OVCAR3 cells [1]; [11],26 fold
same,"Fold more sensitive, NIH-OVCAR3 compared to the 12 ovarian cancer cell lines",NIH-OVCAR3 cells [1]; [11],21 fold
same,CC50,[2]; [12],8800 ± 9580 nM
same,CC50,[3]; [12],10500 ± 9610 nM
same,CC50,[4]; [12],280 ± 70 nM
same,RAD51 foci formation,NIH-OVCAR3 cells [6],increase in RAD51 foci formation
same,γH2AX foci formation,NIH-OVCAR3 cells [6],induction in γH2AX foci
C[C@@H]1COCCN1c1cc(C2([S@](C)(=N)=O)CC2)nc(-c2cc[nH]c3nccc2-3)n1 [AZD6738],Cytotoxicity in relation to p53 status,p53 mutant CLL cells,selectively cytotoxic towards p53 mutant CLL cells
same,Sensitivity in relation to p53 status,[7],independent of p53 status
CS(=O)(=O)c1ccc(-c2cnc(N)c(C(=O)Nc3ccccc3)n2)cc1 [VE-821],CC50,"NIH-OVCAR3 cells [1]; Homo sapiens, OVCAR-3, read-out: VE-821 LC50 ± SD",17900 ± 4560 nM
same,"Fold more resistant, NIH-OVCAR3 compared to panel of 12 ovarian cancer cell lines",NIH-OVCAR3 cells [1]; [11],11 fold
same,CC50,[2]; [13],1580 ± 1120 nM
same,CC50,[3]; [13],1680 ± 1190 nM
same,CC50,[4]; [13],1010 ± 500 nM
same,IC50,"ATR [8]; 4NQO ± VE-821 for 1 hr, western blot, normalised to vinculin, read-out: VE-821 IC50 ± SD (ATR inhibition, pCHK1Ser345)",310 ± 270 nM
same,inhibition at 1 µM,"ATR [8]; OVCAR-3, 1 μM VE-821, 4NQO, 1 hr, pCHK1Ser345, read-out: ATR Inhibition at 1 μM VE-821 ± SD",81 ± 5.29%
same,inhibition at 1 µM,"ATR [9]; 1 μM VE-821, 4NQO, 1 hr, pCHK1Ser345, read-out: ATR Inhibition at 1 μM VE-821 ± SD",78.1 ± 13.4%
same,IC50,"ATR [9]; 4NQO ± VE-821 for 1 hr, western blot, read-out: VE-821 IC50 ± SD (ATR inhibition, pCHK1Ser345)",380 ± 200 nM
same,Difference in sensitivity to single agent between p53 isogenic cells,[10],no difference in sensitivity
